Our source for the IC50, ED50 and inhibition in vivo values is ChEMBL document CHEMBL1138287, “Stereoselective synthesis of a novel 2-aza-7-oxabicyclo[3.3.0]octane as neurokinin-1 receptor antagonist” (Bioorg Med Chem Lett, 2007).

One may read the IC50 as the midpoint of a concentration-inhibition curve. Usually ED50 stands for the dose at which the effect has come halfway, by size or by number of responders. As a reminder, the inhibition in vivo is the share of the control response that was lost under treatment.

One assay has as its target Substance-P receptor (Homo sapiens, UniProt P25103). The assay is described as follows: Displacement of [3H]substance P from NK1 human receptor expressed in IM9 cells. The assay is classed as cell-based, IM-9. Background: Displacement assays read how much labelled ligand stays bound in the presence of the test substance.
Assay [1] has as its target Voltage-gated L-type calcium channel (Rattus norvegicus, UniProt P22002+Q02485+P27732). The assay is described as follows: Displacement of [3H]desmethoxyverapamil from verapamil binding site of L type calcium channel in rat heart.
The species entered for assay [2] is Cavia porcellus. The assay is described as follows: Antagonist activity in guinea pig ureter assessed as inhibition of capsaicin-induced plasma extravasation. The assay is classed as functional.
Assay [3] deals with Cavia porcellus. The assay is described as follows: Antagonist activity in guinea pig ureter assessed as inhibition of capsaicin-induced plasma extravasation at 1 mg/kg, po. The assay is classed as functional.
The subject of assay [4] is Cavia porcellus. The assay is described as follows: Antagonist activity in guinea pig ureter assessed as inhibition of capsaicin-induced plasma extravasation at 10 mg/kg, po. The assay is classed as functional.

Chain of Substance-P receptor (P25103 whole entry): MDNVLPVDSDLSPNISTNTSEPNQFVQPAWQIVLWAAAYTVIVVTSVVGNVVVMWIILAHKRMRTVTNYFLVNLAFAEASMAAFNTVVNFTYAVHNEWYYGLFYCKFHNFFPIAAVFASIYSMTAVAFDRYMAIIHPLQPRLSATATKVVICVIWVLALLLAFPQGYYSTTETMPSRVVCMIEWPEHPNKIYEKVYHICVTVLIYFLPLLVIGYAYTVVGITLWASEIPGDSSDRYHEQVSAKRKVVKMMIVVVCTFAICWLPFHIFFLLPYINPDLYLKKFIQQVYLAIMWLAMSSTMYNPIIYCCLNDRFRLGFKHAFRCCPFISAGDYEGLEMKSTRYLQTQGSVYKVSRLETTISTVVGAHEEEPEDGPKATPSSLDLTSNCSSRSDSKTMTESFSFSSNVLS

With `COc1ccccc1CN[C@H]1[C@@H]2CCC[C@@H]2N[C@H]1c1ccccc1` (racemic), the IC50 is 3.4 nM on Substance-P receptor and over 1000 nM in assay [1].
Take `COc1ccc(OC(F)(F)F)cc1CN[C@H]1[C@@H]2COC[C@@H]2N[C@H]1c1ccccc1` (racemic): the IC50 is 0.22 nM on Substance-P receptor and over 1000 nM in assay [1]. The ED50 in the assay listed under Cavia porcellus [2] was 1 mg/kg. Also, in the assay on Cavia porcellus [3], the inhibition in vivo at 1 mg/kg turned out to be 10%. In the assay on Cavia porcellus [4], the inhibition in vivo at 10 mg/kg was 94%.
